From patent publication US9468643B2, “PDE5 inhibitor compositions and methods for immunotherapy” (The Johns Hopkins University, priority 2005, dated 2016)
Entries after “also recorded” stand apart in the source; their conditions may differ. Read-outs that look alike come from different tables or passages of the source.

Key:
[1] = system: CT26-WT or C26GM colon carcinoma; assay: Tumor outgrowth after s.c. challenge with CT26-WT or C26GM; assay type: in vivo, mice (BALB/c); details: for anti-tumor efficacy in immune deficient Rag-/- mice: BALB/c Rag-/- mice; for tumor outgrowth: Balb/c mice, CT26-WT or C26GM, sildenafil 20 mg/kg/day, tadalafil 2 mg/kg/day ip, treatment alone
[2] = human, in vivo, cited from earlier work
C26GM colon carcinoma [3] = assay: C26GM tumor outgrowth with sildenafil and anti-CD8 depleting antibody; assay type: in vivo, mice (BALB/c)
C26GM colon carcinoma [4] = assay: Adoptive cell transfer (ACT) with sildenafil in C26GM-bearing mice, tumor size; assay type: in vivo, mice (BALB/c)
[5] = system: tumor infiltrating CD8+ / CD4+ T cells; assay: Tumor-infiltrating lymphocyte number and activation in sildenafil-treated tumor-bearing mice; assay type: in vivo, mice (BALB/c)
purified CD11b+ MSCs = assay: IL4Rα expression on purified CD11b+ MSCs cultured with sildenafil; assay type: cell-based, mice; details: for IL4Rα expression in cultured MSCs: sildenafil 50 μg/ml in culture; for IFN-γ mediated IL4Rα up-regulation in cultured MSCs: sildenafil 50 μg/ml, IFN-γ 25 ng/ml added on day 2
[6] = system: PBLs (CD4+ and CD8+ T cells); assay: Proliferation assay of PBLs stimulated with anti-CD3/CD28 antibody-coated beads; assay type: cell-based, human
[7] = system: tumor-derived CD11b+ MSCs / antigen-specific T cells; assay: MSC suppressive assay (CFSE dilution of antigen-specific T cells admixed with CD11b+ MSCs); assay type: cell-based, mice; details: sildenafil 50 μg/ml
[8] = system: tumor-associated MSCs (CD11b+ cells); assay: In vivo sildenafil treatment of tumor-bearing mice; analysis of purified tumor-associated CD11b+ MSCs (cGMP EIA, Western blot, NO, arginase, IL4Rα flow cytometry); parameters: species or system mice (BALB/c); details: sildenafil 20 mg/kg/day in vivo
tumor = details: cited from earlier work; for anti-tumor efficacy as single agent: used alone; for efficacy of antitumor vaccines when used as adjuvant: with vaccines

## CN1CC(=O)N2[C@H](c3ccc4c(c3)OCO4)c3[nH]c4ccccc4c3C[C@@H]2C1=O [tadalafil]
[1]
  anti-tumor efficacy in immune deficient Rag-/- mice: lack of anti-tumor efficacy
  tumor outgrowth: significantly delayed tumor outgrowth
[2]; po
  apparent oral clearance (CL/F): 2.48 L/h
  time of peak plasma concentration post-dose: two
[2]
  mean elimination half-life: about 17.5 h

## CCCc1nn(C)c2c(=O)[nH]c(-c3cc(S(=O)(=O)N4CCN(C)CC4)ccc3OCC)nc12 [sildenafil]
C26GM colon carcinoma [3]; anti-CD8 clone 2.43 on days 0, 2, 4, 6
  tumor outgrowth effect of sildenafil with anti-CD8 depleting antibody: completely abolished by CD8^+ depletion
C26GM colon carcinoma [3]; sildenafil alone
  tumor outgrowth: statistically significant reduction in tumor outgrowth
C26GM colon carcinoma [4]; sildenafil 20 mg/kg/day in drinking water
  tumor outgrowth, sildenafil without adoptive transfer: statistically significant reduction in tumor outgrowth
C26GM colon carcinoma [4]; sildenafil 20 mg/kg/day plus 20×10^6 C26GM-primed splenocytes
  anti-tumor efficacy, sildenafil coupled with adoptive immunotherapy (ACT): greatest anti-tumor efficacy
[5]; BALB/c-IL-2p/GFP splenocytes, sildenafil for 9 days
  IL-2 production (GFP) by adoptively transferred vaccine-primed CD8+ T cells in the tumor: activated in the tumor microenvironment only with PDE5 inhibition
[5]; C26GM, day 9, flow cytometry
  CD4+ T cell tumor infiltration: no increase in CD4^+ T cells
  CD8+ T cell tumor infiltration: increase in intratumoral CD8^+ T cell infiltration
  activation of tumor-infiltrating CD8+ T cells (CD69 and CD25): increased the percentage of activated T cells; also recorded: significantly activated the tumor-infiltrating CD8^+ T cells
[5]; C26GM, day 9, flow cytometry, listed as Sildenafil
  CD8+ T cell tumor infiltration: greater CD8^+ tumor infiltration
[5]; CT26WT, day 15, sildenafil 20 mg/kg/day, vs untreated controls
  intratumoral cellular infiltration (hematoxylin-eosin staining): greater intratumoral cellular infiltration
[5]; sildenafil-treated group, n=3, untreated 1.19±1.180
  tumor-infiltrating CD8+ cells specific for AH1 (tetramer positive): 9.08%±0.905
[1]
  anti-tumor efficacy in immune deficient Rag-/- mice: lack of anti-tumor efficacy
  tumor outgrowth: significantly delayed tumor outgrowth
Purified CD11b+ MSCs
  IL4Rα expression in cultured MSCs: significantly reduced
  IFN-γ mediated IL4Rα up-regulation in cultured MSCs: significantly reduced
Purified CD11b+ MSCs; listed as Sildenafil
  IL4Rα expression in cultured MSCs: down-regulates IL4Rα in cultured MSCs
  IFN-γ mediated IL4Rα up-regulation in cultured MSCs: prevents IFN-γ mediated IL4Rα up-regulation
[6]; data not shown
  proliferation of isolated CD3+ T cells: unable to increase T cell proliferation
[6]; sildenafil 50 μg/ml, 5 days
  CD4+ and CD8+ proliferation of PBLs from head and neck cancer and multiple myeloma patients: restore CD3/CD28-stimulated proliferation of PBLs; also recorded: significantly restored CD4^+ and CD8^+ proliferation in all the examined patients
  proliferation of PBLs from healthy donors: no effect on PBLs from healthy donors
[7]; BALB/c, C26GM-derived CD11b+ MSCs
  proliferation (responsiveness) of HA-specific CD4+ and CD8+ T cells in presence of tumor-derived MSCs: almost completely restored
[7]; C57Bl/6 NOS2+/+, B16GM melanoma
  suppression of OVA-specific CD4+ T cells by MSCs from NOS2+/+ mice: reversed MSC suppression
[7]; C57Bl/6 NOS2-/-, B16GM melanoma
  responsiveness of OVA-specific CD4+ T cells with MSCs from NOS2-/- mice: did not augment T cell responsiveness
[7]; no MSCs added
  T cell function in the groups lacking CD11b cells: absence of a sildenafil-mediated enhancement in T cell function
[8]; NO3-NO2 in supernatant
  NO production by intratumoral MSCs: lower NO production
[8]; Western blot
  NOS2 expression in intratumoral MSCs: down-regulation of NOS2
[8]; Western blot and arginase assay
  Arg-1 expression and activity in intratumoral MSCs: down-regulated Arg-1
[8]; competitive enzyme immune assay, vs control group
  intracellular cGMP levels in intratumoral MSCs: higher intracellular cGMP levels than the control group
[8]; data not shown
  intracellular cGMP in the non-MSC population: No significant differences
[8]; flow cytometry
  IL4Rα expression on intratumoral MSCs: significantly reduced IL4Rα expression

## CC(=O)Oc1ccccc1C(=O)Oc1cccc(CO[N+](=O)[O-])c1 [nitroaspirin]
tumor
  anti-tumor efficacy as single agent: no anti-tumor efficacy when used alone
  efficacy of antitumor vaccines when used as adjuvant: enhanced the preventive and therapeutic efficacy of antitumor vaccines
tumor; listed as nitro-aspirin
  anti-tumor efficacy as single agent: ineffective as a single agent
  efficacy of antitumor vaccines when used as adjuvant: augmented the anti-tumor efficacy of vaccines on established tumors
